Test results published in PubChem BioAssay (NCI).
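Test compounds were applied to cells in 96-well plates for 48 hours at 5 doses. The concentration for 50% growth inhibition is given as GI50. TGI denotes the concentration required for complete inhibition of growth.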

Tests used:
Assay in all cases: DTP human tumour cell line panel, 48 h
ACHN renal = tested on: ACHN renal
COLO 205 colon = tested on: COLO 205 colon
LOX IMVI melanoma = tested on: LOX IMVI melanoma
MOLT-4 leukemia = tested on: MOLT-4 leukemia
OVCAR-3 ovarian = tested on: OVCAR-3 ovarian
OVCAR-4 ovarian = tested on: OVCAR-4 ovarian
OVCAR-5 ovarian = tested on: OVCAR-5 ovarian
RPMI-8226 leukemia = tested on: RPMI-8226 leukemia
SF-295 CNS = tested on: SF-295 CNS
SK-MEL-28 melanoma = tested on: SK-MEL-28 melanoma

## COc1cc(C(=O)O/N=C(\N)Cc2cccc3ccccc23)cc(OC)c1OC
ACHN renal
  GI50: 7.11 µM
  TGI: 20.3 µM
COLO 205 colon
  GI50: 12.2 µM
  TGI: 28.1 µM
LOX IMVI melanoma
  GI50: 3.41 µM
  TGI: 16.9 µM
MOLT-4 leukemia
  GI50: 4.53 µM
  TGI: 29.4 µM
OVCAR-3 ovarian
  GI50: 9.62 µM
  TGI: 23.3 µM
OVCAR-4 ovarian
  GI50: 10.6 µM
  TGI: 26 µM
OVCAR-5 ovarian
  GI50: 13 µM
  TGI: 26.5 µM
RPMI-8226 leukemia
  GI50: 3.02 µM
  TGI: 12.6 µM
SF-295 CNS
  GI50: 3.49 µM
  TGI: 13.7 µM
SK-MEL-28 melanoma
  GI50: 12.4 µM
  TGI: 26.2 µM

## O=S1c2ccccc2NC(c2ccc3ccccc3c2)CC1c1ccccc1 (stereo not given)
ACHN renal
  TGI: 52.2 µM
COLO 205 colon
  TGI: 74.4 µM
LOX IMVI melanoma
  TGI: 33.7 µM
MOLT-4 leukemia
  TGI: 70.3 µM
OVCAR-3 ovarian
  TGI: 35.1 µM
OVCAR-4 ovarian
  TGI: 53.9 µM
OVCAR-5 ovarian
  TGI: > 100 µM
RPMI-8226 leukemia
  TGI: 60.8 µM
SF-295 CNS
  TGI: 55 µM
SK-MEL-28 melanoma
  TGI: > 100 µM

## CN(C)CCNC(=O)c1c2ccccc2cc2ccccc12
ACHN renal
  TGI: > 100 µM
COLO 205 colon
  TGI: 48.3 µM
LOX IMVI melanoma
  TGI: 30.1 µM
MOLT-4 leukemia
  TGI: 45 µM
OVCAR-3 ovarian
  TGI: > 100 µM
OVCAR-4 ovarian
  TGI: > 100 µM
OVCAR-5 ovarian
  TGI: > 100 µM
RPMI-8226 leukemia
  TGI: > 100 µM
SF-295 CNS
  TGI: > 100 µM
SK-MEL-28 melanoma
  TGI: 64.4 µM

## Oc1ccc(Oc2cnc3cc(Cl)ccc3n2)cc1
ACHN renal
  GI50: 36.3 µM
  TGI: > 100 µM
COLO 205 colon
  GI50: 92.4 µM
  TGI: > 100 µM
LOX IMVI melanoma
  GI50: 34.9 µM
  TGI: > 100 µM
MOLT-4 leukemia
  GI50: 14.6 µM
  TGI: > 100 µM
OVCAR-3 ovarian
  GI50: 15.8 µM
  TGI: 38.4 µM
OVCAR-4 ovarian
  GI50: 28.2 µM
  TGI: > 100 µM
OVCAR-5 ovarian
  GI50: > 100 µM
  TGI: > 100 µM
RPMI-8226 leukemia
  GI50: 16.7 µM
  TGI: > 100 µM
SF-295 CNS
  GI50: 22.6 µM
  TGI: 74.5 µM
SK-MEL-28 melanoma
  GI50: 76 µM
  TGI: > 100 µM

## O=C(Cn1c(C(=O)c2ccc(Cl)cc2)nc(-c2ccccc2)c1-c1ccccc1)c1ccc(Cl)cc1
ACHN renal
  GI50: > 100 µM
  TGI: > 100 µM
COLO 205 colon
  GI50: > 100 µM
  TGI: > 100 µM
LOX IMVI melanoma
  GI50: > 100 µM
  TGI: > 100 µM
MOLT-4 leukemia
  GI50: > 100 µM
  TGI: > 100 µM
OVCAR-3 ovarian
  GI50: > 100 µM
  TGI: > 100 µM
OVCAR-4 ovarian
  GI50: > 100 µM
  TGI: > 100 µM
OVCAR-5 ovarian
  GI50: > 100 µM
  TGI: > 100 µM
RPMI-8226 leukemia
  GI50: > 100 µM
  TGI: > 100 µM
SF-295 CNS
  GI50: > 100 µM
  TGI: > 100 µM
SK-MEL-28 melanoma
  GI50: > 100 µM
  TGI: > 100 µM

## CC(C)C[CH2][Ge]([CH2]CC(C)C)([CH2]CC(C)C)[CH2]CC(C)C
ACHN renal
  GI50: > 100 µM
  TGI: > 100 µM
COLO 205 colon
  GI50: > 100 µM
  TGI: > 100 µM
LOX IMVI melanoma
  GI50: > 100 µM
  TGI: > 100 µM
MOLT-4 leukemia
  GI50: > 100 µM
  TGI: > 100 µM
OVCAR-3 ovarian
  GI50: > 100 µM
  TGI: > 100 µM
OVCAR-4 ovarian
  GI50: > 100 µM
  TGI: > 100 µM
OVCAR-5 ovarian
  GI50: > 100 µM
  TGI: > 100 µM
RPMI-8226 leukemia
  GI50: > 100 µM
  TGI: > 100 µM
SF-295 CNS
  GI50: > 100 µM
  TGI: > 100 µM
SK-MEL-28 melanoma
  GI50: > 100 µM
  TGI: > 100 µM

## O=c1c2c(=NCCN3CCCC3)cc3c(=O)n(CCCN4CCOCC4)c(=O)c4ccc(c(O)n1CCCN1CCOCC1)c2c4-3
ACHN renal
  GI50: 0.0909 µM
  TGI: 1.51 µM
COLO 205 colon
  GI50: 0.165 µM
  TGI: 0.423 µM
LOX IMVI melanoma
  GI50: 0.192 µM
  TGI: 0.443 µM
MOLT-4 leukemia
  GI50: < 0.0216 µM
  TGI: 5.71 µM
OVCAR-3 ovarian
  GI50: 0.0994 µM
  TGI: 1 µM
OVCAR-4 ovarian
  GI50: 0.13 µM
  TGI: 0.735 µM
OVCAR-5 ovarian
  GI50: 0.113 µM
  TGI: 1.21 µM
RPMI-8226 leukemia
  GI50: 0.146 µM
  TGI: 1.09 µM
SF-295 CNS
  GI50: 0.231 µM
  TGI: 0.84 µM
SK-MEL-28 melanoma
  GI50: 0.454 µM
  TGI: 1.74 µM
